Assay results reported in ChEMBL document CHEMBL4020729, “Synthesis and evaluation of anti-plasmodial and cytotoxic activities of epoxyazadiradione derivatives” (Eur J Med Chem, 2017).

Assays:
Type in all cases: functional, cell-based
PANC-1 = test: Antiproliferative activity against human PANC1 cells after 48 hrs by SRB assay; conditions: PANC-1, 48 h
Plasmodium falciparum [1] = test: Anti-plasmodial activity against chloroquine-sensitive Plasmodium falciparum 3D7 infected in human erythrocytes after 50 hrs by SYBR green dye based fluorescence assay; conditions: 3D7, 50 h
IMR-32 = test: Antiproliferative activity against human IMR32 cells after 48 hrs by SRB assay; conditions: IMR-32, 48 h
SiHa = test: Antiproliferative activity against human SiHa cells after 48 hrs by SRB assay
MDA-MB-231 = test: Antiproliferative activity against human MDA-MB-231 cells after 48 hrs by SRB assay; conditions: MDA-MB-231, 48 h
Plasmodium falciparum [2] = test: Anti-plasmodial activity against chloroquine-resistant Plasmodium falciparum Dd2 infected in human erythrocytes after 50 hrs by SYBR green dye based fluorescence assay; conditions: Dd2, 50 h

SMILES | IC50 (PANC-1) [µM] | IC50 (Plasmodium falciparum [1]) [µM] | IC50 (IMR-32) [µM] | IC50 (SiHa) [µM] | IC50 (MDA-MB-231) [µM] | IC50 (Plasmodium falciparum [2]) [µM]
CC1(C)C(=O)C=C[C@]2(C)[C@H]3CC[C@@]4(C)[C@H](c5ccoc5)/C(=N\O)[C@H]5O[C@]54[C@]3(C)[C@H](O)C[C@@H]12 | > 100 | 20 | > 100 | > 100 | > 100 | 
CC(=O)O[C@@H]1C[C@H]2C(C)(C)C(=O)C3OC3[C@]2(C)[C@H]2CC[C@@]3(C)[C@H](c4ccoc4)C(=O)[C@H]4O[C@]43[C@@]21C (some centres undefined) | > 100 | 15.5 | > 100 | > 100 | 23.2 | 
C=CCCC(=O)O/N=C1/[C@H]2O[C@]23[C@@]2(C)[C@H](CC[C@@]3(C)[C@@H]1c1ccoc1)[C@@]1(C)C=CC(=O)C(C)(C)[C@@H]1C[C@H]2OC(C)=O | > 100 | 5.8 | > 100 | > 100 | 55.8 | 
CC(=O)O[C@@H]1C[C@H]2C(C)(C)C(=O)C=C[C@]2(C)[C@H]2CC[C@@]3(C)[C@H](c4ccoc4)/C(=N\OCc4cn(CC(=O)Nc5ccc(I)c(Cl)c5)nn4)[C@H]4O[C@]43[C@@]21C | > 100 | 53.2 | > 100 | > 100 | > 100 | 87
CC(=O)O[C@@H]1C[C@H]2C(C)(C)C(=O)C=C[C@]2(C)[C@H]2CC[C@@]3(C)[C@H](c4ccoc4)/C(=N\OCc4cn(-c5cc(Cl)c(Cl)cc5Cl)nn4)[C@H]4O[C@]43[C@@]21C | > 100 | 2.3 | > 100 | > 100 | > 100 | 
CC1(C)C(=O)C=C[C@]2(C)[C@H]3CC[C@@]4(C)[C@H](c5ccoc5)C(=O)[C@H]5O[C@]54[C@]3(C)[C@H](OC(=O)c3ccc(F)c(Br)c3)C[C@@H]12 | > 100 | 6 | > 100 | > 100 | > 100 | 5.5
CC(=O)O[C@@H]1C[C@H]2C(C)(C)C(O)CC[C@]2(C)[C@H]2CC[C@@]3(C)[C@H](c4ccoc4)C(O)[C@H]4O[C@]43[C@@]21C (some centres undefined) | > 100 | 21.4 | > 100 | > 100 | 15.9 | 
CC(=O)O[C@@H]1C[C@H]2C(C)(C)C(=O)C=C[C@]2(C)[C@H]2CC[C@@]3(C)[C@H](c4ccoc4)/C(=N\OCc4cn(CC(=O)Nc5ccccc5)nn4)[C@H]4O[C@]43[C@@]21C | 25.4 | 13.8 | > 100 | > 100 | > 100 | 8.3
CC(=O)O[C@@H]1C[C@H]2C(C)(C)C(=O)C=C[C@]2(C)[C@H]2CC[C@@]3(C)[C@H](c4ccoc4)/C(=N\OC(=O)c4cc(Br)ccc4[N+](=O)[O-])[C@H]4O[C@]43[C@@]21C | > 100 | 4.1 | > 100 | > 100 | > 100 | 
CC(=O)O[C@@H]1C[C@H]2C(C)(C)C(=O)C(O)C(O)[C@]2(C)[C@H]2CC[C@@]3(C)[C@H](c4ccoc4)C(=O)[C@H]4O[C@]43[C@@]21C (some centres undefined) | > 100 | 52.5 | > 100 | > 100 | 29.9 | 
COc1ccc(OC)c(/C=C/C(=O)O[C@@H]2C[C@H]3C(C)(C)C(=O)C=C[C@]3(C)[C@H]3CC[C@@]4(C)[C@H](c5ccoc5)C(=O)[C@H]5O[C@]54[C@@]32C)c1 | > 100 | 8.8 | > 100 | > 100 | > 100 | 
CC(=O)O[C@@H]1C[C@H]2C(C)(C)C(=O)C=C[C@]2(C)[C@H]2CC[C@@]3(C)[C@H](c4ccoc4)/C(=N\OCc4cn(-c5ccccc5C#N)nn4)[C@H]4O[C@]43[C@@]21C | > 100 | 1.7 | > 100 | > 100 | > 100 | 
CCC(=O)Nc1ccc(-n2cc(CO/N=C3/[C@H]4O[C@]45[C@@]4(C)[C@H](CC[C@@]5(C)[C@@H]3c3ccoc3)[C@@]3(C)C=CC(=O)C(C)(C)[C@@H]3C[C@H]4OC(C)=O)nn2)cc1 | > 100 | 6.7 | > 100 | > 100 | > 100 | 
CC(=O)O/N=C1/[C@H]2O[C@]23[C@@]2(C)[C@H](CC[C@@]3(C)[C@@H]1c1ccoc1)[C@@]1(C)C=CC(=O)C(C)(C)[C@@H]1C[C@H]2OC(C)=O | > 100 | 9.3 | > 100 | > 100 | > 100 | 
CC(=O)O[C@@H]1C[C@H]2C(C)(C)C(=O)CC[C@]2(C)[C@H]2CC[C@@]3(C)[C@H](C4CCOC4)C(=O)[C@H]4O[C@]43[C@@]21C (some centres undefined) | > 100 | 78.7 | > 100 | > 100 | > 100 | 
COc1ccc(C[C@@H](O)c2cc(OC)c(OC)c(OC)c2)cc1O [COMBRETASTATIN] | 3.5 |  | 2.4 | 2 | 2.3 | 

SMILES | IC50 (PANC-1) [µM] | IC50 (Plasmodium falciparum [1]) [µM] | IC50 (IMR-32) [µM] | IC50 (SiHa) [µM] | IC50 (MDA-MB-231) [µM] | IC50 (Plasmodium falciparum [2]) [µM]
CC(=O)O[C@@H]1C[C@H]2C(C)(C)C(=O)C=C[C@]2(C)[C@H]2CC[C@@]3(C)[C@H](c4ccoc4)C(O)[C@H]4O[C@]43[C@@]21C (some centres undefined) | > 100 | 13.1 | > 100 | > 100 | 47.8 | 
CC(=O)O[C@@H]1C[C@H]2C(C)(C)C(O)C=C[C@]2(C)[C@H]2CC[C@@]3(C)[C@H](c4ccoc4)C(O)[C@H]4O[C@]43[C@@]21C (some centres undefined) | > 100 | 35.5 | > 100 | > 100 | > 100 | 
CC(=O)O[C@@H]1C[C@H]2C(C)(C)C(=O)CC[C@]2(C)[C@H]2CC[C@@]3(C)[C@H](c4ccoc4)C(=O)[C@H]4O[C@]43[C@@]21C | > 100 | 7.5 | > 100 | > 100 | 20.2 | 
CC1(C)C(=O)C=C[C@]2(C)[C@H]3CC[C@@]4(C)[C@H](c5ccoc5)C(=O)[C@H]5O[C@]54[C@]3(C)[C@H](O)C[C@@H]12 |  | 11.4 |  |  |  | 9.4
CC(=O)O[C@@H]1C[C@H]2C(C)(C)C(=O)C=C[C@]2(C)[C@H]2CC[C@@]3(C)[C@H](c4ccoc4)/C(=N\OCc4cn(-c5ccc(C)cc5)nn4)[C@H]4O[C@]43[C@@]21C | > 100 | 4.2 | > 100 | > 100 | > 100 | 
CC(=O)O[C@@H]1C[C@H]2C(C)(C)C(=O)C=C[C@]2(C)[C@H]2CC[C@@]3(C)[C@H](c4ccoc4)/C(=N\OC(=O)c4ccccc4Br)[C@H]4O[C@]43[C@@]21C | > 100 | 12.2 | > 100 | > 100 | > 100 | 
CC(=O)O[C@@H]1C[C@H]2C(C)(C)C(=O)C=C[C@]2(C)[C@H]2CC[C@@]3(C)[C@H](c4ccoc4)/C(=N\OC(=O)c4cccc([N+](=O)[O-])c4)[C@H]4O[C@]43[C@@]21C | > 100 | 28.6 | > 100 | > 100 | > 100 | 
CC(=O)O[C@@H]1C[C@H]2C(C)(C)/C(=N/O)C=C[C@]2(C)[C@H]2CC[C@@]3(C)[C@H](c4ccoc4)/C(=N\O)[C@H]4O[C@]43[C@@]21C | > 100 | 31.4 | > 100 | > 100 | 29.1 | 
CCC(=O)O/N=C1/[C@H]2O[C@]23[C@@]2(C)[C@H](CC[C@@]3(C)[C@@H]1c1ccoc1)[C@@]1(C)C=CC(=O)C(C)(C)[C@@H]1C[C@H]2OC(C)=O | > 100 | 9.3 | > 100 | > 100 | > 100 | 
COc1cccc(C(=O)O/N=C2/[C@H]3O[C@]34[C@@]3(C)[C@H](CC[C@@]4(C)[C@@H]2c2ccoc2)[C@@]2(C)C=CC(=O)C(C)(C)[C@@H]2C[C@H]3OC(C)=O)c1 | > 100 | 8 | > 100 | > 100 | > 100 | 
CCCC(=O)O/N=C1/[C@H]2O[C@]23[C@@]2(C)[C@H](CC[C@@]3(C)[C@@H]1c1ccoc1)[C@@]1(C)C=CC(=O)C(C)(C)[C@@H]1C[C@H]2OC(C)=O | > 100 | 9.3 | > 100 | > 100 | > 100 | 
CC(=O)O[C@@H]1C[C@H]2C(C)(C)C(=O)C=C[C@]2(C)[C@H]2CC[C@@]3(C)[C@H](c4ccoc4)/C(=N\OC(=O)c4ccc(Br)cc4)[C@H]4O[C@]43[C@@]21C | > 100 | 9.4 | > 100 | > 100 | > 100 | 
CC1(C)C(=O)C2OC2[C@]2(C)[C@H]3CC[C@@]4(C)[C@H](c5ccoc5)C(=O)[C@H]5O[C@]54[C@]3(C)C(=O)C[C@@H]12 (some centres undefined) | > 100 | 131 | > 100 | > 100 | > 100 | 
CCC(=O)O[C@@H]1C[C@H]2C(C)(C)C(=O)C=C[C@]2(C)[C@H]2CC[C@@]3(C)[C@H](c4ccoc4)C(=O)[C@H]4O[C@]43[C@@]21C |  | 7.1 |  |  |  | 
CC(=O)O[C@@H]1C[C@H]2C(C)(C)C(=O)C=C[C@]2(C)[C@H]2CC[C@@]3(C)[C@H](c4ccoc4)/C(=N\OCc4cn(-c5ccc(Cl)cc5)nn4)[C@H]4O[C@]43[C@@]21C | > 100 | 2.9 | > 100 | > 100 | 21.3 | 
COc1cccc2c1C(=O)c1c(O)c3c(c(O)c1C2=O)C[C@@](O)(C(=O)CO)C[C@@H]3O[C@H]1C[C@H](N)[C@H](O)[C@H](C)O1 [DOXORUBICIN] | 3.2 |  | 3.2 | 1.9 | 1.8 | 
